Laboratory results published in ChEMBL document CHEMBL1938360, “6-Amino quinazolinedione sulfonamides as orally active competitive AMPA receptor antagonists” (Bioorg Med Chem Lett, 2012).
The source made the active and inactive calls. No cut-off for these calls is given here.

Assays:
[1] = Clearance in DBA/2 mouse at 30 mg/kg; assay type: ADME, organism-based; set-up: dose 30 mg/kg; details: in vivo
Mus musculus [2] = assay: Anticonvulsant activity in intraperitoneally dosed DBA/2 mouse assessed as protection from tonic seizures measured 1 hr post administration; assay type: functional; details: DBA/2, ip
[3] = Oral bioavailability in DBA/2 mouse at 30 mg/kg; assay type: ADME, organism-based; details: in vivo
[4] = Displacement of [3H]CNQX from AMPA receptor on rat brain homogenate; assay type: tissue-based
Mus musculus [5] = assay: Anticonvulsant activity in DBA/2 mouse assessed as protection from audiogenic seizures at 30 mg/kg, po measured 1 hr post administration; assay type: functional
Mus musculus [6] = assay: Anticonvulsant activity in DBA/2 mouse assessed as protection from audiogenic seizures at 10 mg/kg, po measured 1 hr post administration; assay type: functional
Mus musculus [7] = assay: Anticonvulsant activity in DBA/2 mouse assessed as protection from audiogenic seizures at 30 mg/kg, ip measured 1 hr post administration; assay type: functional, organism-based; set-up: dose 30 mg/kg
Mus musculus [8] = assay: Anticonvulsant activity in orally dosed DBA/2 mouse assessed as protection from tonic seizures measured 1 hr post administration; details: DBA/2, po
Mus musculus [9] = assay: Anticonvulsant activity against po dosed electric-shock mouse model assessed as inhibition of convulsion in hind legs measured 2 hrs post administration; assay type: functional
Mus musculus [10] = assay: Anticonvulsant activity against po dosed electric-shock mouse model assessed as inhibition of convulsion in hind legs at 50 mg/kg, po measured 4 hrs post administration; assay type: functional

CS(=O)(=O)Nn1c(=O)[nH]c2cc(C(F)(F)F)c(N3CCOCC3)cc2c1=O
clearance [1]: 135 mL/min/kg
ED50 (Mus musculus [2]): 58 mg/kg
bioavailability [3]: 100%
IC50 [4]: 500 nM

CN(C)C(=O)c1ncn(-c2cc3c(=O)n(NS(C)(=O)=O)c(=O)[nH]c3cc2C(F)(F)F)n1
IC50 [4]: 1020 nM

CCNc1cc2c(=O)n(NS(C)(=O)=O)c(=O)[nH]c2cc1C(F)(F)F
Activity (Mus musculus [5]): 53%
IC50 [4]: 1000 nM

CS(=O)(=O)Nn1c(=O)[nH]c2cc(C(F)(F)F)c(NCCO)cc2c1=O
Activity (Mus musculus [6]): 20%
IC50 [4]: 550 nM

CN(C)C(=O)c1cn(-c2cc3c(=O)n(NS(C)(=O)=O)c(=O)[nH]c3cc2C(F)(F)F)cn1
IC50 [4]: 420 nM

CNC(=O)c1cn(-c2cc3c(=O)n(NS(C)(=O)=O)c(=O)[nH]c3cc2C(F)(F)F)cn1
Activity (Mus musculus [7]): Active
Activity (Mus musculus [5]): inactive
bioavailability [3]: 10%

CNC(=O)c1ncn(-c2cc3c(=O)n(NS(C)(=O)=O)c(=O)[nH]c3cc2C(F)(F)F)n1
IC50 [4]: 110 nM

CS(=O)(=O)Nn1c(=O)[nH]c2cc(C(F)(F)F)c(-n3cccc3)cc2c1=O
IC50 [4]: 165 nM

CS(=O)(=O)Nn1c(=O)[nH]c2cc(C(F)(F)F)c(N3CCCOCC3)cc2c1=O
ED50 (Mus musculus [8]): 5.5 mg/kg
ED50 (Mus musculus [9]): 10.5 mg/kg
clearance [1]: 10.2 mL/min/kg
bioavailability [3]: 100%
inhibition in vivo at 50 mg/kg (Mus musculus [10]): 20%
IC50 [4]: 360 nM

CS(=O)(=O)Nn1c(=O)[nH]c2cc([N+](=O)[O-])c(-n3ccnc3)cc2c1=O
Activity (Mus musculus [7]): Active
Activity (Mus musculus [5]): inactive
IC50 [4]: 81 nM

CS(=O)(=O)Nn1c(=O)[nH]c2cc(C(F)(F)F)c(N)cc2c1=O
IC50 [4]: 1200 nM

CN(CCO)c1cc2c(=O)n(NS(C)(=O)=O)c(=O)[nH]c2cc1C(F)(F)F
clearance [1]: 49 mL/min/kg
ED50 (Mus musculus [2]): 7.9 mg/kg
bioavailability [3]: 100%
IC50 [4]: 250 nM

CS(=O)(=O)Nn1c(=O)[nH]c2cc(C(F)(F)F)c(-n3ccnc3)cc2c1=O
Activity (Mus musculus [7]): Active
Activity (Mus musculus [5]): inactive
IC50 [4]: 44 nM

CS(=O)(=O)Nn1c(=O)[nH]c2cc(C(F)(F)F)c(-n3cnnc3)cc2c1=O
Activity (Mus musculus [7]): Active
ED50 (Mus musculus [2]): 0.94 mg/kg
Activity (Mus musculus [5]): inactive
bioavailability [3]: 10%
IC50 [4]: 46 nM
